From patent publication US20060063209A1, “Engineered antibody fragment that irreversibly binds an antigen” (THE REGENTS OF THE UNIVERSITY OF CALIFORNIA, priority 2004, published 2006)

What was measured:
[1] = Whole-body clearance of indium-111 labeled electrophilic benzyl-EDTA derivatives; type: in vivo; conditions: indium-111 labeled chelate, BALB/c mice; for apparent half-life, whole-body clearance: after tail-vein injection
Experimental: FIG. 4 Whole-body clearance of indium-^111I labeled electrophilic derivatives of benzyl-EDTA from BALB/c mice after tail-vein injection. Here the objective was to find an electrophilic chelate that clears from the animal quickly when not captured by an engineered CHA255.
As reactive ligands, a small set of chelates bearing electrophilic para substituents (FIG. 3) that could react with cysteine were prepared. To be most useful, the electrophilic ligands should be stable in biological media so that they not react prematurely with common biological nucleophiles such as the cysteine on glutathione or in albumin (Geigy Scientific Tables Vol 3, C. Lentner, ed., Ciba-Geigy Ltd., Basel, Switz (1984)). The whole-body clearance of the radiolabeled chelates from mice was studied (FIG. 4 and Chmura, A. J., et al., J. Controlled Release 78:249-258 (2002)) to identify the electrophilic chelates that are unreactive in plasma in vitro, and which also quantitatively clear from live animals.

[2] = system: Fab S95C; assay: Covalent attachment of 111In-chelates to engineered Fab S95C (SDS-PAGE); type: binding; conditions: physiological pH and temperature, raw culture medium with 10% fetal calf serum
Experimental: FIG. 5 Conjugation of electrophilic ^111In-benzyl-EDTA derivatives with engineered Fab S95C. Phosphorimage of 10-20% SDS-PAGE gel of samples of complete culture media incubated with ^111In-labeled (A) CABE, (B) CpABE, (C) AABE, and (D) ABE. The radiolabeled light chains migrate near 25 Kd.
To investigate whether either the S95C or the N96C Fab would bind irreversibly to its target, ^111In-labeled chelates bearing electrophilic groups were incubated at physiological pH and temperature with raw tissue culture medium from the cells expressing these recombinant proteins. The culture medium contained 10% fetal calf serum, representative of typical biological media.
The samples were analyzed by denaturing gel electrophoresis (SDS-PAGE). Separation under reducing and denaturing conditions on SDS-PAGE separates the light chain from the heavy chain of each Fab, functionally destroying the antibody-binding pocket. Chelates bound to the Fab but not covalently linked will dissociate because the antibody-binding pocket is no longer folded. […] However, a chelate that not only bound to a Fab but also covalently linked will be attached to the Fab light chain and migrate with it on SDS-PAGE.

[3] = system: G54C mutant of 2D12.5; assay: Permanent binding to G54C, competitive 90Y-AABD attachment, SDS-PAGE; conditions: 37° C.
Experimental: FIG. 17 a) Scheme describing the permanent binding pair. b) Infinite binding is observed not only for ^90Y-AABD but also for ^111In-AABD, assayed by SDS-PAGE under denaturing conditions where only permanently bound complexes remain attached to the antibody.
FIG. 18 The G54C mutant was preincubated in triplicate with 10 μM AABD complexes of Y^3+, In^3+ or Cu^2+, a negative control N-(1-carbamoyl-2-(4-nitrophenyl)-ethyl)-acrylamide or N-(4-carboxymethylphenyl)-acrylamide, or just buffer, for 5 min, 20 min or 120 min at 37° C., pH 7.5. At the stated times ^90Y-AABD (1 μM) was added to each solution to compete for free G54C. Permanent binding was assayed by measuring band intensities after SDS-PAGE. a) Phosphorimage of gel. The fainter the bands, the greater the permanent binding by the unlabeled ligand. b) Crystal structures of Y-DOTA, In-DOTA-mono(p aminoanilide) (some atoms removed for clarity) and Cu-DOTA.
FIG. 19 a) Metal-AABD (10 μM) complexes were preincubated separately with aliquots of G54C for 5 min, followed by addition of 1 μM ^90Y-AABD, which competes for free G54C, and SDS-PAGE analysis. b) From quantitative phosphorimaging, the highest-affinity AABD complexes form permanent bonds with G54C with higher yields than more 3+weakly binding rare earth-AABD complexes whose ionic radii are slightly smaller (Lu Yb^3+) or larger (Ce^3+, La^3+) than ideal.
We were curious to see if an even weaker binder such as a copper chelate (KD˜10^−4 M for Cu-NBD) would bind irreversibly under ordinary conditions. We tested this by comparing the permanent binding of Y^3+-, In^3+-, and Cu^2+-AABD, using competitive ^90Y-AABD attachment as an indicator (FIG. 18). […] Weaker binding In-AABD blocks >50% of the sites after 5 min preincubation, and even more at later times. Very weakly binding Cu-AABD initially occupies only about 10% of the G54C sites under these conditions, but it has permanently attached to G54C in good yield after 2 hr, blocking>70% of the sites.

[4] = system: antibody 2D12.5; assay: Competitive immunoassay (ELISA) of metal chelate binding; parameters: species or system mouse
Text: FIG. 9 Relative binding of metal-(S)NBD complexes to antibody 2D12.5. A representative set of competitive binding curves obtained from ELISA experiments. Distance between midpoints is related to difference between dissociation constants. Error bars (representing the standard error of the mean) are shown but are generally smaller than the data points.
FIG. 14 Binding of yttrium chelates with different stereochemistry to antibody 2D12.5, showing that the antibody binds a chelate with the side chain in the R configuration approximately one order of magnitude less well than the S configuration. […] Error bars are smaller than the data symbols. Data were generated by competitive ELISA.
A competitive immunoassay to measure the binding constants of various metal-(S)NBD complexes relative to the original Y^3+ complex (FIG. 9) was developed to assess the metal selectivity of antibody 2D12.5. Briefly, 2D12.5 was incubated at 37° C. in the presence of immobilized HSA-21T-Y-(S)BAD and a soluble metal-(S)NBD competitor (Y-(S)BAD was linked to human serum albumin via 2-iminothiolane). The metal-(S)NBD concentration was varied from μM to pM in order to determine the relative binding affinity of 2D12.5 for each metal chelate in comparison to Y-(S)NBD. […] Other antibodies that bind metal chelates do so with a strong preference for one or possibly two metals (Love, R. et al., Biochemistry 32, 10950-10959 (1993), and Khosraviani, M., et al., (2000) Bioconjugate Chem., 11, 267-277). For example, the (S)NBD chelate of group IIIB ion Sc(III) binds to the antibody with a much lower affinity (<1%) than the strongest binding rare earth complexes, perhaps because Sc(III) has a much smaller ionic radius (Meehan, P. R., et al., Coord. Chem. Rev., 181, 121145, and Shannon, R. D. (1976) Acta Crystallogr., Sect. A: Found. Crystallogr., A32, 751-767).

[5] = biological target: avidin (Gallus gallus, UniProt P02701); conditions: cited from earlier work
Sequence of avidin (P02701 25-152): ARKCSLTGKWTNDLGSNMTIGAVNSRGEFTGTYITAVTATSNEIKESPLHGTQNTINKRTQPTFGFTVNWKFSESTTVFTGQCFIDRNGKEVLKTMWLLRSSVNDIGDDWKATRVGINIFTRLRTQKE

[6] = system: HLA-DR10; assay: Gel shift assay of permanent attachment of sL1 mutants (western blot); type: binding; conditions: for cross-linking of linker-activated T97C to HLA-DR10: sL1 mutant T97C activated with electrophile, 19 h incubation, western blot
Text: FIG. 25 Gel shift assay of permanent attachment of sL1 to HLA-DR: western blot stained with anti-HLA-DR10β (antibody HL-40). The glycosylated β subunit of HLA-DR10 runs approximately 28-34 kDa, so the cross-linked sL1-HLA-DR10β should run at 57-63 kDa (bands in lanes 5 and 10). Lanes 2-6 are cysteine mutant F96C and lanes 7-11 are cysteine mutant T97C. Lanes 2 and 7 are sL1 mutant only; lanes 3 and 8 are sL1 mutant and HLA-DR10 target; lanes 4 and 9 are sL1 mutant and electrophile (no target); lanes 5 and 10 are the complete experiment: sL1 mutant, electrophile, and target; and lanes 6 and 11 are sL1 mutant with electrophile and recombinant human serum albumin as a negative control. Lnkr: nitrophenyl ester; Trgt: HLA-DR10.
Irreversible Binding Studies of sL1 and HLA-DR10 The general strategy for the development of an irreversibly binding Lym1 sFv (sL1) is outlined in FIG. 24. Lym-1 scFv (sL1) is genetically altered to incorporate a cysteine residue in various positions of one of the six CDRs. This free sulfhydryl is then activated with an alkylbromoacetate consisting of varied R-groups (see FIG. 34) which modify the reactivity of the covalent bond formation. The activated sL1 is then incubated with a crude mixture containing the target protein. The mixture is loaded on a SDS-PAGE gel and then investigated for the appearance of new, high molecular weight bands corresponding to the conjugation of the target protein and the sL1.
The general experimental protocol for the gel shift assays in the figures is as follows. An aliquot of concentrated P. pastoris expression media containing an sL1 mutant (8-10 μL, positive by anti-V5 stain for sL1 and dialyzed into 10 mM HEPES buffer pH 8.0), is incubated for 15 min with a chosen bromoacetate ester (e.g., nitrophenyl bromoacetate) at a concentration of 10 mM, to alkylate the Cys sidechain. […] Reducing SAB is added to each sample, followed by SDS-PAGE and western blotting.

[7] = system: HLADR; assay: Monovalent binding of Lym-1 single-chain antibody
Text: This is a combination of (1) the behavior characteristic of a weak binder, which should permeate a tumor, and (2) the behavior of an extremely strong binder, which should ultimately lock onto its targets throughout the tumor. This combination of good penetration and permanent binding is a unique and revolutionary aspect of this technology.

In the case of O=C(O)CN(CC(=O)O)CC(Cc1ccc(NC(=O)CBr)cc1)N(CC(=O)O)CC(=O)O (centres unmarked) [BABE, bromoacetamidobenzyl-EDTA], the “whole-body clearance” value [1] is reported as “remain in the animals” and the “apparent half-life, whole-body clearance” value [1] is reported as 41 h.

For O=C(O)CN(CC(=O)O)CC(Cc1ccc(NC(=O)CCl)cc1)N(CC(=O)O)CC(=O)O (centres unmarked) [CABE, chloroacetamidobenzyl-EDTA], the “whole-body clearance” value [1] was “remain in the animals”, the “apparent half-life, whole-body clearance” value [1] was 9 h and the “covalent attachment to Fab S95C light chain” value [2] was “reacted equally well”.

With C=CC(=O)Nc1ccc(C[C@H]2CN(CC(=O)O)CCN(CC(=O)O)CCN(CC(=O)O)CCN2CC(=O)O)cc1 [Cu-AABD, (S)-2-(4-acrylamidobenzyl)-DOTA] the “G54C sites initially occupied” value ([3]; 10 μM complex, pH 7.5) was “about 10%” and the “G54C sites blocked from 90Y-AABD” value ([3]; 10 μM complex, after 2 hr, pH 7.5) was over 70%.

For O=C(O)CN1CCN(CC(=O)O)CCN(CC(=O)O)[C@@H](Cc2ccc([N+](=O)[O-])cc2)CN(CC(=O)O)CC1 [Gd-(S)NBD, (S)-2-(4-nitrobenzyl)-DOTA], the “relative binding to 2D12.5” value ([4]; competitive ELISA) was “bind more tightly than the original Y^3+ complex”.

For C=CC(=O)Nc1ccc(C[C@H]2CN(CC(=O)O)CCN(CC(=O)O)CCN(CC(=O)O)CCN2CC(=O)O)cc1 [In-AABD, (S)-2-(4-acrylamidobenzyl)-DOTA], the “G54C sites blocked from 90Y-AABD” value ([3]; 10 μM complex, preincubation 5 min, pH 7.5) was over 50% and the “permanent binding to G54C” value ([3]; pH 7.5, SDS-PAGE, listed as 111In-AABD) was “binds permanently”.

For O=C(O)CN1CCN(CC(=O)O)CCN(CC(=O)O)[C@@H](Cc2ccc([N+](=O)[O-])cc2)CN(CC(=O)O)CC1 [La-(S)NBD, (S)-2-(4-nitrobenzyl)-DOTA], the “ΔΔG relative to the Y-(S)NBD complex” value ([4]; competitive ELISA) was 0.693 kcal/mol.

With O=C(O)CN1CCN(CC(=O)O)CCN(CC(=O)O)[C@@H](Cc2ccc([N+](=O)[O-])cc2)CN(CC(=O)O)CC1 [Y-(S)NBD, (S)-2-(4-nitrobenzyl)-DOTA] the Kd ([4]; 37° C., competitive immunoassay) was 10 nM.

In the case of O=C(O)CN1CCN(CC(=O)O)CCN(CC(=O)O)CCN(CC(=O)O)CC1 [Y-DOTA, 1,4,7,10-tetraazacyclododecane-N,N′,N″,N′″-tetraacetic acid], the “relative binding to 2D12.5” value ([4]; competitive ELISA) is reported as “lower than Y-(S)NBD but higher than Y-(R)NBD” and the “relative binding to 2D12.5” value ([4]; competitive ELISA, listed as Yttrium-DOTA) is reported as “approximately in the middle”.

For O=C(O)CCCC[C@@H]1SC[C@@H]2NC(=O)N[C@@H]21 [biotin], the KA [5] is given as about 4e+09 M⁻¹.

With O=C(CBr)Oc1ccccc1 [phenylbromoacete] the “cross-linking of linker-activated T97C to HLA-DR10” value [6] was “mild reactivity”.

In the case of “(S)-1-p chloropropionamidobenzyl-EDTA [CpABE]”, the “covalent attachment to Fab S95C light chain” value [2] is reported as “not”.

In the case of nitrophenylbromoacetate, the “cross-linking of linker-activated T97C to HLA-DR10” value [6] is reported as “strong cross-linking”.

B1: sL1: Lym-1 single-chain antibody, no cysteine mutation (protein)
scFv: RSQVQLKESGPGLVAPSQSLSITCTISGFSLTSYGVHWVRQPPGKGLEWLVVIWSDGSTTYNSALKSRLSISKDNSKSQVFLKMNSLQTDDTAIYYCASHYGSTLAFASWGHGTLVTVSAGGGGSGGGGSGGGGSDIQMTQSPASLSASVGETVTIICRASVNIYSYLAWYQQKQGKSPQLLVYNAKILAEGVPSRFSGSGSGTQFSLKINSLQPEDFGSYYCQHHYGTFTFGSGTKLEIKSRGPFEGKPIPNPLLGLDSTRTGHHHHHH
In the case of B1, the “permanent attachment (cross-linking) to HLA-DR10β” value ([6]; sL1 construct treated with nitrophenyl ester, 37° C., 4 hr, western blot with HL-40) is reported as “no reactive band appeared” and the “monovalent affinity” value [7] is reported as “too weak to measure confidently, but probably in the micromolar range”.
